Reference: patent US20250326933A1, “SOLID COMPOSITION OF INDOCYANINE GREEN AND SODIUM FLUORESCEIN” (ICROM Srl, priority 2021, published 2025)

How the values were obtained:
[1] = Solubility in water evaluated by filtration of the solution on a syringe filter; type: physicochemical
[2] = Stability of the compounds of formula (IA) and (IB) and of their solid composition by HPLC; type: physicochemical; conditions: for Stability by HPLC as such and after freeze-drying: (IA) with or without iodide
Description: The formulations from 13 to 18 and the compounds used for the preparation thereof were analysed with the following analytical method. The analysis confirms that the purity of IA >99.5% injected as such and the stability of the formulation after freeze-drying, evaluated based on the fact that there is no other peak in the chromatogram except for Ia and Ib.
Sample solution: 1.5 mg/ml in methanol. Inject immediately after preparing the solution. The mixtures of formula (IA) and (IB) described in Table 2 were prepared and then appropriately diluted and injected in HPLC to evaluate the profile at T0.
The same mixtures were re-prepared exactly as described in the experimental part, dry frozen and controlled in HPLC after freeze-drying, 7 days later. During these 7 days the samples were stored inside their amber glass vials in a protective atmosphere at room temperature. The freeze-dried products were dissolved in water at the same dilution as the not freeze-dried samples.
The stability of the freeze-dried powders stored in the vials was evaluated using HPLC even after 6 months. The freeze-dried products are stable, even without the presence of sodium iodide, formulation 9.
The reconstituted solution was stable if stored at 4-10° C. for at least 24 hours (formulations 1, 3, 5 and 7).

[3] = aqueous solution; cited from earlier work
[4] = after intravenous administration; cited from earlier work
[5] = freeze-dried, 10 mg/ml in water
[6] = not freeze-dried, 5 mg/ml in water
[7] = not freeze-dried, 10 mg/ml in water

Structure (SMILES): CC1(C)C(/C=C/C=C/C=C/C=C2\N(CCCCS(=O)(=O)[O-])c3ccc4ccccc4c3C2(C)C)=[N+](CCCCS(=O)(=O)[O-])c2ccc3ccccc3c21.[Na+] [069/079]
- Filtration on 0.45 μm syringe filter: Pressure ([1]; freeze-dried, 5 mg/ml in water): Low
- Filtration on 0.45 μm syringe filter: ml filtered ([1]; freeze-dried, 5 mg/ml in water): 10 mL
- Filtration on 0.45 μm syringe filter: Pressure [1, 5]: Low
- Filtration on 0.45 μm syringe filter: ml filtered [1, 5]: 10 mL
- Filtration on 0.45 μm syringe filter: Pressure [1, 6]: Block
- Filtration on 0.45 μm syringe filter: ml filtered [1, 6]: 0 mL
- Filtration on 0.45 μm syringe filter: Pressure [1, 7]: Block
- Filtration on 0.45 μm syringe filter: ml filtered [1, 7]: 0 mL

Structure (SMILES): CC1(C)C(/C=C/C=C/C=C/C=C2\N(CCCCS(=O)(=O)[O-])c3ccc4ccccc4c3C2(C)C)=[N+](CCCCS(=O)(=O)[O-])c2ccc3ccccc3c21.[Na+] [compound of formula (IA), 1H-benz[e]indole, 2-[7-[1,3-dihydro-1,1-dimethyl-3-(4-sulfobutyl)-2H-benz[e]indol-2-ylidene]-1,3,5-heptatrienyl]-1,1-dimethyl-3-(4-sulfobutyl) hydroxide, inner salt, sodium salt]
- Stability by HPLC as such and after freeze-drying [2]: stable
- Degradation by freeze-drying (HPLC) ([2]; as such or in mixture with (IB), with or without sodium iodide): does not degrade
- Decomposition when dissolved in water [3]: non-detectable decomposition for a few hours

Structure (SMILES): O=C([O-])c1ccccc1-c1c2ccc(=O)cc-2oc2cc([O-])ccc12.[Na+].[Na+] [compound of formula (IB), sodium fluorescein]
- Stability by HPLC as such and after freeze-drying [2]: stable
- Time to complete removal by the kidneys [4]: 24 to 36 h
